As a reminder, the EC50 is the midpoint of the concentration-response curve.

Our source for the EC50 values is US8889670B2, “Heterocyclic compounds which modulate the CB2 receptor” (Boehringer Ingelheim International GmbH, priority 2009, dated 2014).

Molecules are shown by their SMILES.

For one experiment, the target named is T1, human CB2R (Homo sapiens, UniProt P34972).
T1 construct: host or cells: CHO cells
T1 sequence (P34972 whole entry): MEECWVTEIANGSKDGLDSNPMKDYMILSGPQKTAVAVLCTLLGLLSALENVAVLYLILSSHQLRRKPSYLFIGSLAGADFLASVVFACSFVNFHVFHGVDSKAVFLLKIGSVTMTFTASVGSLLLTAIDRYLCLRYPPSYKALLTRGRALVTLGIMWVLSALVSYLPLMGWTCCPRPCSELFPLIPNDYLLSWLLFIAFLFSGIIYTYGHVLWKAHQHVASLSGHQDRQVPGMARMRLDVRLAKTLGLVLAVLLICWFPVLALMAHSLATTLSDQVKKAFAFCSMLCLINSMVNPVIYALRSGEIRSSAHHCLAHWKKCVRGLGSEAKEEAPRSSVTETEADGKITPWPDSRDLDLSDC
Kind of experiment: CB2R mediated modulation of cAMP synthesis (forskolin-stimulated cAMP, CHO cells expressing human CB2R). The class given is cell-based.
Details: not given
The protocol:
B. CB2R Mediated Modulation of cAMP Synthesis:
Compounds of the invention were evaluated for their CB2 agonist or inverse agonistic activity in accordance with the following experimental method.
CHO cells expressing human CB2R (Euroscreen) were plated at a density of 5000 cells per well in 384 well plates and incubated overnight at 37° C. After removing the media, the cells were treated with test compounds diluted in stimulation buffer containing 1 mM IBMX, 0.25% BSA and 10 uM Forskolin. The assay was incubated for 30 minutes at 37° C. Cells were lysed and the cAMP concentration was measured using DiscoverX-XS cAMP kit, following the manufacturer's protocol. In this setting, agonists will decrease forskolin induced production of cAMP while inverse agonists will further increase forskolin induced production of cAMP. EC50 of agonists were calculated as follows. The maximal amount of cAMP produced by forskolin compared to the level of cAMP inhibited by 1 uM CP55940 is defined as 100%. […] Data was analyzed using a four-parameter logistic model. (Model 205 of XLfit 4.0).
`CC(C)(C)c1nsc(NC(=O)[C@@H]2CCCCN2CC2CCOCC2)n1` [(S)-1-(Tetrahydro-pyran-4-ylmethyl)-piperidine-2-carboxylic acid (3-tert-butyl-1,2,4-thiadiazol-5-yl)-amide] yielded a concentration giving a half-maximal response (EC50) of 12 nM.

On to `CC(C)(C)c1cc(NC(=O)[C@@H]2CCCCN2CC2CCOCC2)sn1` [(S)-1-(Tetrahydro-pyran-4-ylmethyl)-piperidine-2-carboxylic acid (3-tert-butyl-isothiazol-5-yl)-amide], for which it took 0.3 nM to reach a half-maximal effect (EC50).

With `O=C(Nc1ccc(F)c(C(F)(F)F)c1)[C@@H]1CCCCN1CC1CCOCC1` [(S)-1-(Tetrahydro-pyran-4-ylmethyl)-piperidine-2-carboxylic acid (4-fluoro-3-trifluoromethyl-phenyl)-amide], it took 26 nM to reach a half-maximal effect (EC50).

As for `O=C(Nc1nc2c(F)cccc2s1)[C@@H]1CCCCN1CC1CCOCC1` [(S)-1-(Tetrahydro-pyran-4-ylmethyl)-piperidine-2-carboxylic acid (4-fluoro-benzothiazol-2-yl)-amide], the 50% effective concentration (EC50) is 1.3 nM.

As to `CC(C)(C)c1coc(NC(=O)[C@@H]2CCCCN2CC2CCOCC2)n1` [(S)-1-(Tetrahydro-pyran-4-ylmethyl)-piperidine-2-carboxylic acid (4-tert-butyl-oxazol-2-yl)-amide], it took 2.4 nM to reach a half-maximal effect (EC50).

`CC(C)(C)c1csc(NC(=O)[C@@H]2CCCCN2CC2CCOCC2)n1` [(S)-1-(Tetrahydro-pyran-4-ylmethyl)-piperidine-2-carboxylic acid (4-tert-butyl-thiazol-2-yl)-amide] registered a 50% effective concentration (EC50) of 13 nM.

With `O=C(Nc1nc2cc(Cl)ccc2s1)[C@@H]1CCCCN1CC1CCOCC1` [(S)-1-(Tetrahydro-pyran-4-ylmethyl)-piperidine-2-carboxylic acid (5-chloro-benzothiazol-2-yl)-amide], the EC50 stood at 0.2 nM.

Turning to `O=C(Nc1ccc(C(F)(F)F)cn1)[C@@H]1CCCCN1CC1CCOCC1` [(S)-1-(Tetrahydro-pyran-4-ylmethyl)-piperidine-2-carboxylic acid (5-trifluoromethyl-pyridin-2-yl)-amide], the EC50 was found to be 69 nM.

In turn, `O=C(Nc1nc(-c2ccc(F)c(F)c2)cs1)[C@@H]1CCCCN1CC1CCOCC1` [(S)-1-(Tetrahydro-pyran-4-ylmethyl)-piperidine-2-carboxylic acid [4-(3,4-difluoro-phenyl)-thiazol-2-yl]-amide] showed an EC50 of 3.6 nM.

As for `CC(C)(C)c1cc(NC(=O)[C@@H]2CCCCN2C(=O)C2CCCC2)no1` [(S)-1-Cyclopentanecarbonyl-piperidine-2-carboxylic acid (5-tert-butyl-isoxazol-3-yl)-amide], it took 14 nM to reach a half-maximal effect (EC50).

Take `CC(C)(C)c1cc(NC(=O)[C@@H]2CCCCN2C(=O)CC2CCS(=O)(=O)C2)no1` (stereo partly drawn) [(S)-1-[2-(1,1-Dioxo-tetrahydro-1λ^6-thiophen-3-yl)-acetyl]-piperidine-2-carboxylic acid (5-tert-butyl-isoxazol-3-yl)-amide]: the EC50 was determined as 7.7 nM.

In the case of `CC(C)(C)c1cc(NC(=O)[C@@H]2CCCCN2C(=O)CN2CCC(F)(F)C2)no1` [(S)-1-[2-(3,3-Difluoro-pyrrolidin-1-yl)-acetyl]-piperidine-2-carboxylic acid (5-tert-butyl-isoxazol-3-yl)-amide], it took 2.9 nM to reach a half-maximal effect (EC50).

As to `CC(C)(C)c1cc(NC(=O)[C@@H]2CCCCN2C(=O)CN2CCC(F)(F)CC2)no1` [(S)-1-[2-(4,4-Difluoro-piperidin-1-yl)-acetyl]-piperidine-2-carboxylic acid (5-tert-butyl-isoxazol-3-yl)-amide], the EC50 was 34 nM.

`CC(C)(C)c1cc(NC(=O)[C@@H]2CCCCN2C(=O)CN2CCC(F)CC2)no1` [(S)-1-[2-(4-Fluoro-piperidin-1-yl)-acetyl]-piperidine-2-carboxylic acid (5-tert-butyl-isoxazol-3-yl)-amide] returned an EC50 of 75 nM.

`CC(C)(C)c1cc(NC(=O)[C@@H]2CCCCN2c2ncc(C(F)(F)F)cc2Cl)no1` [(S)-3′-Chloro-5′-trifluoromethyl-3,4,5,6-tetrahydro-2H-[1,2′]bipyridinyl-2-carboxylic acid (5-tert-butyl-isoxazol-3-yl)-amide] returned an EC50 of 0.18 nM.

The same experiment, now with this note: agonist EC50, inhibition of forskolin-stimulated cAMP synthesis; CHO cells expressing human CB2R; mean; read-out: CB2 CAMP @ EC50 nM (mean).
Turning to `O=C(Nc1nc(C2CCCCC2)cs1)[C@@H]1CCCCN1CC1CCOCC1` [(S)-1-(Tetrahydro-pyran-4-ylmethyl)-piperidine-2-carboxylic acid (4-cyclohexyl-thiazol-2-yl)-amide], the EC50 is 9 nM.

Consider `O=C(Nc1nc(-c2ccccc2)cs1)[C@@H]1CCCCN1CC1CCOCC1` [(S)-1-(Tetrahydro-pyran-4-ylmethyl)-piperidine-2-carboxylic acid (4-phenyl-thiazol-2-yl)-amide], for which the EC50 came to 9.9 nM.

Turning to `O=C(Nc1cc(C(F)(F)F)ccn1)[C@@H]1CCCCN1CC1CCOCC1` [(S)-1-(Tetrahydro-pyran-4-ylmethyl)-piperidine-2-carboxylic acid (4-trifluoromethyl-pyridin-2-yl)-amide], the EC50 is 290 nM.

As to `CCc1sc(NC(=O)[C@@H]2CCCCN2CC2CCOCC2)nc1-c1ccccc1` [(S)-1-(Tetrahydro-pyran-4-ylmethyl)-piperidine-2-carboxylic acid (5-ethyl-4-phenyl-thiazol-2-yl)-amide], the EC50 came out at 0.55 nM.

Turning to `O=C(Nc1nsc(-c2ccccc2)n1)[C@@H]1CCCCN1CC1CCOCC1` [(S)-1-(Tetrahydro-pyran-4-ylmethyl)-piperidine-2-carboxylic acid (5-phenyl-1,2,4-thiadiazol-3-yl)-amide], the EC50 was determined as 14 nM.

In the case of `CC(C)(C)c1nnc(NC(=O)[C@@H]2CCCCN2CC2CCOCC2)s1` [(S)-1-(Tetrahydro-pyran-4-ylmethyl)-piperidine-2-carboxylic acid (5-tert-butyl-1,3,4-thiadiazol-2-yl)-amide], the EC50 was found to be 1.6 nM.

For `O=C(Nc1nc2ccc(Cl)cc2s1)[C@@H]1CCCCN1CC1CCOCC1` [(S)-1-(Tetrahydro-pyran-4-ylmethyl)-piperidine-2-carboxylic acid (6-chloro-benzothiazol-2-yl)-amide], the EC50 was 131 nM.

As for `CC(C)(C)c1nnc(NC(=O)[C@@H]2CCCCN2C2CCC2)s1` [(S)-1-Cyclobutyl-piperidine-2-carboxylic acid (5-tert-butyl-1,3,4-thiadiazol-2-yl)-amide], the EC50 is 140 nM.

For `CC(C)(C)c1nnc(NC(=O)[C@@H]2CCCCN2C2CC2)s1` [(S)-1-Cyclopropyl-piperidine-2-carboxylic acid (5-tert-butyl-1,3,4-thiadiazol-2-yl)-amide], the EC50 was found to be 485 nM.

With `CCn1nc(NC(=O)[C@@H]2CCCCN2C(=O)CC2CCS(=O)(=O)C2)nc1-c1ccccc1` (stereo partly drawn) [(S)-1-[2-(1,1-Dioxo-tetrahydro-1λ^6-thiophen-3-yl)-acetyl]-piperidine-2-carboxylic acid (1-ethyl-5-phenyl-1H-1,2,4-triazol-3-yl)-amide], the EC50 was found to be 365 nM.

For the compound `CCn1nc(NC(=O)[C@@H]2CCCCN2C(=O)CN2CCC(F)(F)C2)nc1-c1ccccc1` [(S)-1-[2-(3,3-Difluoro-pyrrolidin-1-yl)-acetyl]-piperidine-2-carboxylic acid (1-ethyl-5-phenyl-1H-1,2,4-triazol-3-yl)-amide], the EC50 came out at 262 nM.

For `CCc1sc(NC(=O)[C@@H]2CCCCN2C(=O)OC(C)(C)C)nc1-c1ccccc1` [(S)-2-(5-Ethyl-4-phenyl-thiazol-2-ylcarbamoyl)-piperidine-1-carboxylic acid tert-butyl ester], the EC50 turned out to be 180 nM.

For the compound `CC(C)(C)OC(=O)N1CCCC[C@H]1C(=O)Nc1nnc(C(C)(C)C)s1` [(S)-2-(5-tert-Butyl-1,3,4-thiadiazol-2-ylcarbamoyl)-piperidine-1-carboxylic acid tert-butyl ester], the EC50 was found to be 495 nM.

For `CC(C)(C)OC(=O)N1CCCC[C@H]1C(=O)Nc1cc(C(C)(C)C)on1` [(S)-2-(5-tert-Butyl-isoxazol-3-ylcarbamoyl)-piperidine-1-carboxylic acid tert-butyl ester], the EC50 came out at 279 nM.

With `O=C(Nc1nc(-c2ccccc2)ns1)[C@@H]1CCCCN1c1ncc(C(F)(F)F)cc1Cl` [(S)-3′-Chloro-5′-trifluoromethyl-3,4,5,6-tetrahydro-2H-1,2′-bipyridinyl-2-carboxylic acid (3-phenyl-1,2,4-thiadiazol-5-yl)-amide], the 50% effective concentration (EC50) was 11 nM.
